Columns and labels:
Format in all cases: cell-based
[1] = biological target: N-type calcium channel subunits (α1B, α2δ, and β3a) (Homo sapiens, UniProt Q00975); assay: Block of Cav2.2 channel, whole cell voltage clamp, manual and PatchXpress; details: Table 5; table follows Assay Example 3 (whole cell voltage clamp / PatchXpress); assay not given
How it was run: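 Percent block taken as current amplitude ratio with versus without compound, applied in rising doses; IC50 fitted where one cell received multiple doses. Protocol: 50 ms pulses to +20 mV at 0.067 Hz from […] or −90 mV holding; P/n leak subtraction, no junction-potential correction; manual and PatchXpress recordings.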

[2] = biological target: human α1G T-type channels (Homo sapiens, UniProt O43497); assay: T-type calcium channel block, whole cell patch clamp, α1G; details: HEK cells stably expressing human α1G; mainly non-inactivated protocol; values above 10,000 nM represented as 10000
How it was run: (§1)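 Using standard patch-clamp, T-type currents were recorded from stably transfected human α1G or α1H HEK 293 cells. Separate non-inactivating and inactivation voltage protocols distinguished resting from voltage-dependent block by locally applied compound in 0.1-0.01% DMSO.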

[3] = biological target: human α1H T-type channels (Homo sapiens, UniProt O95180); assay: T-type calcium channel block, whole cell patch clamp, α1H; details: HEK cells stably expressing human α1H; mainly non-inactivated protocol; values above 10,000 nM represented as 10000
How it was run: as §1

Chain of human α1G T-type channels (O43497 whole entry): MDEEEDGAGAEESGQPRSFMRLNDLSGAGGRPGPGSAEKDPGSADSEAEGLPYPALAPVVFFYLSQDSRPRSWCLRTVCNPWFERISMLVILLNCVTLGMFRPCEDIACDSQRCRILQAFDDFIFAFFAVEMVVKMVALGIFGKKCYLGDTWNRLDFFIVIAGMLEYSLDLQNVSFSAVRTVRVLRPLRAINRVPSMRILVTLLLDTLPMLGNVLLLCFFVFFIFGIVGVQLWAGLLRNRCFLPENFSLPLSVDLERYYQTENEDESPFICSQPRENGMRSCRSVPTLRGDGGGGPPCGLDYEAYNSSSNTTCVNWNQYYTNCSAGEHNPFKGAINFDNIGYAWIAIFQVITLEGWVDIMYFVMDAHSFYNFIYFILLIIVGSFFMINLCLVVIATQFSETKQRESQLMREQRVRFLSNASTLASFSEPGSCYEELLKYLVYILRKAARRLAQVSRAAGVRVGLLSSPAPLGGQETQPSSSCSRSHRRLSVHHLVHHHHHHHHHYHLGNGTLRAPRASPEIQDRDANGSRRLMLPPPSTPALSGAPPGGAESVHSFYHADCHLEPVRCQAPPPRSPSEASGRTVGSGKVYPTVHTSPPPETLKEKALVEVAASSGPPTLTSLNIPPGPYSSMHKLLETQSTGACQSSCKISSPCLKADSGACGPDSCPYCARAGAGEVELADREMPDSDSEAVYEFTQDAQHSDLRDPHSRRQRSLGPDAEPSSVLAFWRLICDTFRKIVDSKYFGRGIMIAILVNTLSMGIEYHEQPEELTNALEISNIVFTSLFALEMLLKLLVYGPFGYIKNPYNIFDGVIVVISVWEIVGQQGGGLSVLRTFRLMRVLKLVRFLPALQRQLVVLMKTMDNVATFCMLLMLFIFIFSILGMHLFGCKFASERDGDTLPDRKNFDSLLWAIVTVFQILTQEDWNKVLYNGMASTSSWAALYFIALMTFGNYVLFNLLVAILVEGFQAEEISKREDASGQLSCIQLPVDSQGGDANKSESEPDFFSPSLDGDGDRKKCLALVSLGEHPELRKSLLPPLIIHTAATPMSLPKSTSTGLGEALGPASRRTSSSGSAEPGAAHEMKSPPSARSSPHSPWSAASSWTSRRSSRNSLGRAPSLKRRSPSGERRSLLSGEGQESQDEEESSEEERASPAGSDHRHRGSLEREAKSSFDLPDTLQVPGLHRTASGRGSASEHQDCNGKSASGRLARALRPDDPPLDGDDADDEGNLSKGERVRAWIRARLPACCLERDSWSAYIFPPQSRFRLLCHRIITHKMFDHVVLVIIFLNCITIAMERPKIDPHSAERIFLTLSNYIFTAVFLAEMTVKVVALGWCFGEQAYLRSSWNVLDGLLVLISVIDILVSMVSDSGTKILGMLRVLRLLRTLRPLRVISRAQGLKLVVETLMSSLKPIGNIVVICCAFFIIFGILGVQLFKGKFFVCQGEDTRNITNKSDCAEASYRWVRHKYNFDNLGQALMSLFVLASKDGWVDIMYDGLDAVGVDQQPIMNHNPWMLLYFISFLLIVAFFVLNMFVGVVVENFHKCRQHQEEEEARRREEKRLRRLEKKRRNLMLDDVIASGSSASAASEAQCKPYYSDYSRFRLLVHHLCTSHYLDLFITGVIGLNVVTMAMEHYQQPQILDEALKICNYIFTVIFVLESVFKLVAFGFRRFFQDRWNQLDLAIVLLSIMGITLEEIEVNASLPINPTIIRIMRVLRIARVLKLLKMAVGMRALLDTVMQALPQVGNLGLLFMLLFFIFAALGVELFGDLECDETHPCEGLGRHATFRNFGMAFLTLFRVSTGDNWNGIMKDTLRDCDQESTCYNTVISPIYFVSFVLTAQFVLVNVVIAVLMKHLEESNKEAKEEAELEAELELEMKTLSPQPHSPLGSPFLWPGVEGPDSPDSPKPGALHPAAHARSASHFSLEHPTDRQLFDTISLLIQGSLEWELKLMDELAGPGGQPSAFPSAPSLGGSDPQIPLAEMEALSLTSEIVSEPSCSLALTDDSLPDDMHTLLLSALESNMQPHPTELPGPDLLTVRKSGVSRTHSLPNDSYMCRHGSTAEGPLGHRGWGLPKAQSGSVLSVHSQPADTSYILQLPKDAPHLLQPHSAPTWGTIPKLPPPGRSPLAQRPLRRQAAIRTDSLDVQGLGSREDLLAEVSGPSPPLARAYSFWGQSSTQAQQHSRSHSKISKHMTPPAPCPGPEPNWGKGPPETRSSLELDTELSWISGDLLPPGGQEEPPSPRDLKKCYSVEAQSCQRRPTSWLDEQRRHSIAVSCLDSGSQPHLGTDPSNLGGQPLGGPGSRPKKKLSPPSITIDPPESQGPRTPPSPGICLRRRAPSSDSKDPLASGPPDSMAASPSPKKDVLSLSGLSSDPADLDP
Chain of human α1H T-type channels (O95180 whole entry): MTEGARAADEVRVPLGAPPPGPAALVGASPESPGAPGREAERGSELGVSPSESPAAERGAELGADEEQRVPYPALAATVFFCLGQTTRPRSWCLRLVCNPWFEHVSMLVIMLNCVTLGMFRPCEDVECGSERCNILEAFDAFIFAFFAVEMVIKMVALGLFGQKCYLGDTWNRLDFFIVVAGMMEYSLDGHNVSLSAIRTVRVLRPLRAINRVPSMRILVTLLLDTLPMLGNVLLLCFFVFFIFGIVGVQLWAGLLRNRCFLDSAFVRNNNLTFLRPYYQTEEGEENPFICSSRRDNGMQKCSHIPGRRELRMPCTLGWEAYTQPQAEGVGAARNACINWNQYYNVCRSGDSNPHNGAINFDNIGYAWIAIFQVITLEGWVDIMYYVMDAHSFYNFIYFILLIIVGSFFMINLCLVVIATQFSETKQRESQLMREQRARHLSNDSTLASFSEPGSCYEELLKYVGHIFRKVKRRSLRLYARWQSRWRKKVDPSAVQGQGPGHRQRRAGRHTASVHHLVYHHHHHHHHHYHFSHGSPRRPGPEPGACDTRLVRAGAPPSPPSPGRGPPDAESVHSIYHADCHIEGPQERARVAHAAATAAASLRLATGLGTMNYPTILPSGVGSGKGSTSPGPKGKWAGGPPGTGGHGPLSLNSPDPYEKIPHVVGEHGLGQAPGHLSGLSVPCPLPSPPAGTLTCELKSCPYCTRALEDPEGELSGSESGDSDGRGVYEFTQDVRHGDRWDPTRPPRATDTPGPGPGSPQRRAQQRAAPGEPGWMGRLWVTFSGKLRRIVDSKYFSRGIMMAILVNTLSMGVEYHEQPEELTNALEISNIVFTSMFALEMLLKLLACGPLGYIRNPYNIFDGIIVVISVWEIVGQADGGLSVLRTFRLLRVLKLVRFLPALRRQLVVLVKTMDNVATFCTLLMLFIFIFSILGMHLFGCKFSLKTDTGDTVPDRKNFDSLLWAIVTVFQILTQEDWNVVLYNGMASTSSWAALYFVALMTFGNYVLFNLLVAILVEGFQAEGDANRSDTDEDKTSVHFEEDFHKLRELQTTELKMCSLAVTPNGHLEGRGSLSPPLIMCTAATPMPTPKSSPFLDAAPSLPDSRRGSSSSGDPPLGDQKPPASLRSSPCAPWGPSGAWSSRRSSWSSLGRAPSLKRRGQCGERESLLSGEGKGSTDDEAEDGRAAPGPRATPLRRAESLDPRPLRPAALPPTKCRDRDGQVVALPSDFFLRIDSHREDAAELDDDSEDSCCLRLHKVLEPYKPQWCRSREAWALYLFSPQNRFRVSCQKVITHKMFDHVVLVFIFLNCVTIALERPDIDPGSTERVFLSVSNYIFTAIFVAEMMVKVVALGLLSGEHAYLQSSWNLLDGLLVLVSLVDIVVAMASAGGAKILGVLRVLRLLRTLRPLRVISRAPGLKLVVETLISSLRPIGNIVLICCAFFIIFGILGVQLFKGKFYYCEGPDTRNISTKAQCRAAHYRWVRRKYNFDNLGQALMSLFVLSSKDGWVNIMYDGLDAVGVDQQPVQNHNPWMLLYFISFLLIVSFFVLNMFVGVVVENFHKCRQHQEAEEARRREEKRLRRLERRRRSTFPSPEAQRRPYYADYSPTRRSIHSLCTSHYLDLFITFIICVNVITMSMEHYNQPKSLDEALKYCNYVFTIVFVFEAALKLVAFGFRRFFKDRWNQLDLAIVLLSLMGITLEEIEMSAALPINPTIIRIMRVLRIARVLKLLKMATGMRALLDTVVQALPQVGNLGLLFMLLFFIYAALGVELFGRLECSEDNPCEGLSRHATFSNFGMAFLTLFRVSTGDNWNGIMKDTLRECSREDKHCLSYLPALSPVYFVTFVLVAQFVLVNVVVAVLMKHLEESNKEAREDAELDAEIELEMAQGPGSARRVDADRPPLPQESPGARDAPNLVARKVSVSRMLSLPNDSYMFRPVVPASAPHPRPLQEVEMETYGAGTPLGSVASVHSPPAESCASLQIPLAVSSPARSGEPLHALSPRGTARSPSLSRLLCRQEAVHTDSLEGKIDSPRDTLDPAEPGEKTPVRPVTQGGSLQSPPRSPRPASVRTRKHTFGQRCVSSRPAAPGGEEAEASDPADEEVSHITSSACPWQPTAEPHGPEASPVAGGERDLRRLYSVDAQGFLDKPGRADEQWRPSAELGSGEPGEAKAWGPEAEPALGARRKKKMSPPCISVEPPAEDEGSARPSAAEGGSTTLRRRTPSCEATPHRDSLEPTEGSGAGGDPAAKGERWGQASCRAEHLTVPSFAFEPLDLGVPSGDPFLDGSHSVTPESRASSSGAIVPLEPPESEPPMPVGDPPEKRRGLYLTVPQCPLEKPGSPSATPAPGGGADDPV

IC50 [1] [nM]	IC50 [2] [nM]	IC50 [3] [nM]	Structure (SMILES)
260	4820	3430	O=C(N[C@H]1CC[C@@H](S(=O)(=O)c2cc(F)cc(C(F)(F)F)c2)CC1)c1ccc(F)c(C(F)(F)F)c1 [Compound 319, 4-fluoro-N-((1S,4S)-4-(3-fluoro-5-(trifluoromethyl)phenylsulfonyl)cyclohexyl)-3-(trifluoromethyl)benzamide]
1460	2290	1040	O=S(=O)(NC[C@H]1C[C@H](S(=O)(=O)c2cccc(C(F)(F)F)c2)C1)c1ccc(C(F)(F)F)cc1 [Compound 424, 4-(trifluoromethyl)-N-(((1R,3R)-3-(3-(trifluoromethyl)phenylsulfonyl)cyclobutyl)methyl)benzenesulfonamide]
1120	2370	260	O=C(N[C@H]1C[C@H](CS(=O)(=O)c2cccc(C(F)(F)F)c2)C1)c1ccc(C(F)(F)F)cn1 [Compound 347, 5-(trifluoromethyl)-N-((1R,3R)-3-((3-(trifluoromethyl)phenylsulfonyl)methyl)cyclobutyl)picolinamide]
190	1430	740	Cn1nc(C(F)(F)F)cc1C(=O)NC[C@H]1C[C@H](S(=O)(=O)c2cccc(C(F)(F)F)c2)C1 [Compound 355, 1-methyl-3-(trifluoromethyl)-N-(((1R,3R)-3-(3-(trifluoromethyl)phenylsulfonyl)cyclobutyl)methyl)-1H-pyrazole-5-carboxamide]
2410	1350	720	O=C(N[C@H]1CC[C@@H](S(=O)(=O)c2cc(F)cc(C(F)(F)F)c2)CC1)c1ccnn1CC(F)(F)F [Compound 323, N-((1S,4S)-4-(3-fluoro-5-(trifluoromethyl)phenylsulfonyl)cyclohexyl)-1-(2,2,2-trifluoroethyl)-1Hpyrazole-5-carboxamide]
200	> 10000	> 10000	O=C(NC[C@H]1C[C@H](S(=O)(=O)c2cccc(C(F)(F)F)c2)C1)c1ccc(F)c(Cl)c1 [Compound 357, 3-chloro-4-fluoro-N-(((1R,3R)-3-(3-(trifluorornethyl)phenylsulfonyl)cyclobutyl)methyl)benzamide]
3430	> 10000	> 10000	O=C(Nc1cncc(Cl)c1)[C@H]1C[C@H](S(=O)(=O)c2cccc(C(F)(F)F)c2)C1 [Compound 419, (1R,3R)-N-(5-chloropyridin-3-yl)-3-(3-(trifluoromethyl)phenylsulfonyl)cyclobutane carboxamide]
520	> 10000	4710	CN(C(=O)c1ccc(F)c(Cl)c1)[C@H]1CC[C@@](F)(S(=O)(=O)c2cc(F)cc(C(F)(F)F)c2)CC1 [Compound 335, 3-chloro-4-fluoro-N-((1S,4S)-4-fluoro-4-(3-fluoro-5-(trifluoromethyl)phenylsulfonyl)cyclohexyl)-N-methylbenzamide]
920	3820	880	O=S(=O)(NC[C@H]1C[C@H](S(=O)(=O)c2cccc(C(F)(F)F)c2)C1)c1cccc(C(F)(F)F)c1 [Compound 427, 3-(trifluoromethyl)-N-(((1R,3R)-3-(3-(trifluoromethyl)phenylsulfonyl)cyclobutyl)methyl)benzenesulfonamide]

More lines, now with the values behind:

Structure (SMILES)	IC50 [1] [nM]	IC50 [2] [nM]	IC50 [3] [nM]
O=C(N[C@H]1CC[C@H](CS(=O)(=O)c2cccc(C(F)(F)F)c2)CC1)c1cc(-c2ccc(F)cc2)n[nH]1 [Compound 108, 3-(4-fluorophenyl)-N-((1R,4R)-4-((3-(trifluoromethyl)phenylsulfonyl)methyl)cyclohexyl)-1H-pyrazole-5-carboxamide]	720	6300	> 10000
O=C(N[C@H]1CC[C@@](F)(S(=O)(=O)c2cccc(C(F)(F)F)c2)CC1)c1nc2cc(C(F)(F)F)ccc2[nH]1 [Compound 85, N-((1S,4S)-4-fluoro-4-(3-(trifluoromethyl)phenylsulfonyl)cyclohexyl)-5-(trifluoromethyl)-1H-benzo[d]imidazole-2-carboxamide]	850	2150	1230
CC(C)(C)NC(=O)CN[C@H]1CC[C@@H](S(=O)(=O)c2cccc(C(F)(F)F)c2)CC1 [Compound 49, N-tert-butyl-2-((1S,4S)-4-(3-(trifluoromethyl)phenylsulfonyl)cyclohexylamino)acetamide]	200	> 10000	> 10000
O=C(N[C@H]1CC[C@@](F)(S(=O)(=O)c2cccc(C(F)(F)F)c2)CC1)C1(C(F)(F)F)CC1 [Compound 275, N-((1S,4S)-4-fluoro-4-(3-(trifluoromethyl)phenylsulfonyl)cyclohexyl)-1-(trifluoromethyl) cyclopropaneCarboxamide]	700	> 10000	> 10000
O=C(N[C@H]1CC[C@H](S(=O)(=O)c2cccc(C(F)(F)F)c2)CC1)c1cncc(C(F)(F)F)c1 [Compound 190, 5-(trifluoromethyl)-N-((1R,4R)-4-(3-(trifluoromethyl)phenylsulfonyl)cyclohexyl)nicotinamide]	600	5560	2530
O=C(CN[C@H]1CC[C@@H](S(=O)(=O)c2cccc(C(F)(F)F)c2)CC1)NC1CCCCC1 [Compound 56, N-cyclohexyl-2-((1S,4S)-4-(3-(trifluoromethyl)phenylsulfonyl)cyclohexylamino)acetamide]	260	820	480
COc1cc(Cl)ccc1C(=O)N[C@H]1CC[C@@H](S(=O)(=O)c2cccc(C(F)(F)F)c2)CC1 [Compound 134, 4-chloro-2-methoxy-N-((1S,4S)-4-(3-(trifluoromethyl)phenylsulfonyl)cyclohexyl)benzamide]	500	2630	1820
COc1cc(F)cc(C(=O)NC[C@H]2CC[C@@H](S(=O)(=O)c3cccc(C(F)(F)F)c3)CC2)c1 [Compound 30, 3-fluoro-5-methoxy-N-(((1S,4S)-4-(3-(trifluoromethyl)phenylsulfonyl)cyclohexyl)methyl)benzamide]	720	1290	1410
O=C(N[C@H]1CC[C@@H](CS(=O)(=O)c2cccc(C(F)(F)F)c2)CC1)c1ccc(Cl)c(F)c1 [Compound 141, 4-chloro-3-fluoro-N-((1S,4S)-4-((3-(trifluoromethyl)phenylsulfonyl)methyl)cyclohexyl)benzamide]	600	4250	3610
CC1(CNC(=O)c2ccc(C(F)(F)F)cn2)CCC(S(=O)(=O)c2cccc(C(F)(F)F)c2)CC1 (stereo not drawn) [Compound 208, N-((1-methyl-4-(3-(trifluoromethyl)phenylsulfonyl)cyclohexyl)methyl)-5-(trifluoromethyl)picolinamide]	590	1140	1110
COc1cc(F)cc(C(=O)NC2CCC(S(=O)(=O)c3cccc(C(F)(F)F)c3)CC2)c1 (stereo not drawn) [Compound 25, 3-fluoro-5-methoxy-N-(4-(3-(trifluoromethyl)phenylsulfonyl)cyclohexyl)benzamide]	360	2790	4660
O=C(N[C@H]1CC[C@@H](S(=O)(=O)c2cccc(C(F)(F)F)c2)CC1)c1ccc(OCC(F)(F)F)nc1 [Compound 197, 6-(2,2,2-trifluoroethoxy)-N-((1S,4S)-4-(3-(trifluoromethyl)phenylsulfonyl)cyclohexyl)nicotinamide]	470	> 10000	5660
CC(C)(C)CC(=O)N[C@H]1CC[C@@](F)(S(=O)(=O)c2cccc(C(F)(F)F)c2)CC1 [Compound 278, N-((1S,4S)-4-fluoro-4-(3-(trifluoromethyl)phenylsulfonyl)cyclohexyl)-3,3-dimethylbutanamide]	280	2480	2230

— US20120245137A1 (Zalicus Pharmaceuticals Ltd., priority 2009, published 2012)
